In brackets after ≈: the same amount, converted by molar mass. Several values for one entry are separate records, joined by “and”; a condition that tells them apart may be missing. Equal entries are not always repeated. Where two headings read alike, the source gives them in different places.
Experiments:
[1] = tested on: M. tb TF274/XDR; test: microbe, parasite or virus in culture; assay type: cell-based; settings: Mycobacterium tuberculosis, read-out: M. tb MIC TF274/XDR
[2] = tested on: M. tb R506/XDR; test: microbe, parasite or virus in culture; assay type: cell-based; settings: Mycobacterium tuberculosis, read-out: M. tb MIC R506/XDR
[3] = tested on: M. tb V2475/MDR; test: microbe, parasite or virus in culture; assay type: cell-based; settings: Mycobacterium tuberculosis, read-out: M. tb MIC V2475/MDR
[4] = tested on: M. tb KZN494/MDR; test: microbe, parasite or virus in culture; assay type: cell-based; settings: Mycobacterium tuberculosis, read-out: M. tb MIC KZN494/MDR
[5] = tested on: M. tb H37Rv strain; settings: cited from earlier work

Row | SMILES | MIC [1] [µM] | MIC [2] [µM] | MIC [3] [µM] | MIC [4] [µM] | MIC ([5]; listed as ethambutol) [µM] | MIC ([5]; ref 22)
1 | O=C(O)c1cn(C2CC2)c2cc(N3CCNCC3)c(F)cc2c1=O [CPF, Ciprofloxacin, reference compound] | 6.04 (≈ 2 µg/mL) | 6.04 (≈ 2 µg/mL) | – | – | – | –
2 | COc1ccc2[nH]c(C(=O)NC34CC5CC(CC(C5)C3)C4)cc2c1 [8d, N-(1-Adamantyl)-5-methoxy-1H-indole-2-carboxamide] | 0.39 (≈ 0.127 µg/mL) | 0.39 (≈ 0.127 µg/mL) | 0.39 to 0.77 (≈ 0.127 to 0.25 µg/mL) | 0.39 (≈ 0.127 µg/mL) | – | –
3 | CC[C@@H](CO)NCCN[C@@H](CC)CO [EMB, ethambutol] | – | – | – | – | 4.89 (≈ 0.999 µg/mL) | 4.89 [22] μM
4 | COc1cccc2[nH]c(C(=O)NC34CC5CC(CC(C5)C3)C4)cc12 [8b, N-(1-Adamantyl)-4-methoxy-1H-indole-2-carboxamide] | 0.024 to 0.048 (≈ 0.00779 to 0.0156 µg/mL) | 0.024 to 0.048 (≈ 0.00779 to 0.0156 µg/mL) | 0.096 (≈ 0.0311 µg/mL) | 0.048 (≈ 0.0156 µg/mL) | – | –
5 | O=C(NC12CC3CC(CC(O)(C3)C1)C2)c1cc2ccc(Br)cc2[nH]1 [8i, 6-bromo-N-(3-hydroxyadamantan-1-yl)-1H-indole-2-carboxamide] | 2.57 (≈ 1 µg/mL) | 2.57 (≈ 1 µg/mL) | 5.14 (≈ 2 µg/mL) | 2.57 to 5.14 (≈ 1 to 2 µg/mL) | – | –
6 | O=C(Nc1cc(Cl)cc(Cl)c1)NC12CC3CC(CC(C3)C1)C2 [10a, 1-(1-Adamantyl)-3-(3,5-dichlorophenyl)urea] | 0.74 (≈ 0.251 µg/mL) | 0.74 (≈ 0.251 µg/mL) | 1.47 to 2.95 (≈ 0.499 to 1 µg/mL) | 1.47 (≈ 0.499 µg/mL) | – | –
7 | O=C(NC12CC3CC(CC(O)(C3)C1)C2)c1cc2c(Cl)cc(Cl)cc2[nH]1 [8j, 4,6-dichloro-N-(3-hydroxyadamantan-1-yl)-1H-indole-2-carboxamide] | 0.66 (≈ 0.25 µg/mL) | 0.66 (≈ 0.25 µg/mL) | 2.64 (≈ 1 µg/mL) | 1.32 (≈ 0.501 µg/mL) | – | –
8 | O=C(Nc1ccc(F)c(F)c1F)NC1C2CC3CC(C2)CC1C3 (centres unmarked) [compound 4] | – | – | – | – | – | 0.096 to 0.19 µM
9 | O=C(NC12CC3CC(CC(O)(C3)C1)C2)c1cc2c(F)cc(F)cc2[nH]1 [8l, 4,6-difluoro-N-(3-hydroxyadamantan-1-yl)-1H-indole-2-carboxamide] | 1.44 (≈ 0.499 µg/mL) | 2.89 (≈ 1 µg/mL) | 5.77 (≈ 2 µg/mL) | 2.89 (≈ 1 µg/mL) | – | –
10 | Cc1ccc2[nH]c(C(=O)NC34CC5CC(CC(C5)C3)C4)cc2c1 [8f, N-(1-Adamantyl)-5-methyl-1H-indole-2-carboxamide] | 0.1 to 0.2 (≈ 0.0308 to 0.0617 µg/mL) | 0.1 to 0.2 (≈ 0.0308 to 0.0617 µg/mL) | 0.2 (≈ 0.0617 µg/mL) | 0.2 (≈ 0.0617 µg/mL) | – | –
11 | NNC(=O)c1ccncc1 [INH, isoniazid] | – | – | – | – | – | 0.29 μM and 0.29 [22] μM
12 | O=C(NC12CC3CC(CC(C3)C1)C2)c1cc2c(F)cc(F)cc2[nH]1 [8k, N-(1-Adamantyl)-4,6-difluoro-1H-indole-2-carboxamide] | 0.012 (≈ 0.00396 µg/mL) | 0.012 (≈ 0.00396 µg/mL) | 0.024 (≈ 0.00793 µg/mL) | 0.024 (≈ 0.00793 µg/mL) | – | –

Reference: publication PMC7775894 (Bioorganic chemistry, 2020)
